Measurements taken from patent publication US20100267561A1, “HERBICIDAL PYRIDAZINONE DERIVATIVES” (priority 2007, published 2010).

Experiments:
Type in all cases: in vivo
[1] = system: barnyardgrass (Echinochloa crus-galli); test: Test B flooded paddy test plant response
Outline: (§1)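 2-leaf plants; pots flooded 3 cm above soil; compound added to paddy water; depth maintained. Greenhouse 13–15 d. Visual rating vs controls, 0 (no effect) to 100 (complete control); dash = no result.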

[2] = system: ducksalad (Heteranthera limosa); test: Test B flooded paddy test plant response
Outline: as §1

[3] = system: umbrella sedge (Cyperus difformis); test: Test B flooded paddy test plant response
Outline: as §1

[4] = system: Italian ryegrass (Lolium multiflorum); test: Test C pre-/postemergence plant response
Outline: (§2)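 Application timings covered preemergence and postemergence (1- to 4-leaf plants, 2 to 18 cm), using a non-phytotoxic solvent mixture that included a surfactant. Controlled-environment holding lasted 15 to 25 days before visual scoring, where 100 denotes complete control and 0 no effect.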

[5] = system: annual bluegrass (Poa annua); test: Test C pre-/postemergence plant response
Outline: as §2

[6] = system: blackgrass (Alopecurus myosuroides); test: Test C pre-/postemergence plant response
Outline: as §2

[7] = system: canarygrass (Phalaris minor); test: Test C pre-/postemergence plant response; conditions: Preemergence
Outline: as §2

[8] = system: downy bromegrass (Bromus tectorum); test: Test C pre-/postemergence plant response
Outline: as §2

[9] = system: green foxtail (Setaria viridis); test: Test C pre-/postemergence plant response
Outline: as §2

[10] = system: pigweed (Amaranthus retroflexus); test: Test C pre-/postemergence plant response
Outline: as §2

[11] = system: spring barley (Hordeum vulgare); test: Test C pre-/postemergence plant response
Outline: as §2

[12] = system: spring wheat (Triticum aestivum); test: Test C pre-/postemergence plant response
Outline: as §2

[13] = system: wild mustard (Sinapis arvensis); test: Test C pre-/postemergence plant response
Outline: as §2

wild oat (Avena fatua) = test: Test C pre-/postemergence plant response
Outline: as §2

[14] = system: windgrass (Apera spica-venti); test: Test C pre-/postemergence plant response
Outline: as §2

[15] = system: winter wheat (Triticum aestivum); test: Test C pre-/postemergence plant response
Outline: as §2

[16] = Flood (flooded paddy test), 62 g ai/ha, scale 0 to 100, 0 no effect, 100 complete control
[17] = Flood (flooded paddy test), 125 g ai/ha, scale 0 to 100, 0 no effect, 100 complete control
[18] = Flood (flooded paddy test), 250 g ai/ha, scale 0 to 100, 0 no effect, 100 complete control
[19] = Flood, 31 g ai/ha, scale 0 to 100
[20] = Postemergence, 8 g ai/ha, scale 0 to 100, 0 no effect, 100 complete control
[21] = Postemergence, 16 g ai/ha, scale 0 to 100, 0 no effect, 100 complete control
[22] = Postemergence, 31 g ai/ha, scale 0 to 100, 0 no effect, 100 complete control
[23] = Postemergence, 62 g ai/ha, scale 0 to 100, 0 no effect, 100 complete control
[24] = Preemergence, 8 g ai/ha, scale 0 to 100 (0 no effect, 100 complete control)
[25] = Preemergence, 16 g ai/ha, scale 0 to 100 (0 no effect, 100 complete control)
[26] = Preemergence, 31 g ai/ha, scale 0 to 100 (0 no effect, 100 complete control)
[27] = Preemergence, 62 g ai/ha, scale 0 to 100, 0 no effect, 100 complete control

CCOC(=O)Oc1cnn(C)c(=O)c1-n1nc(-c2ccc(Cl)cc2)cc1C [Compound 53]
Plant response rating, Barnyardgrass [1, 16]: 0 | Plant response rating, Barnyardgrass [1, 17]: 0 | Plant response rating, Barnyardgrass [1, 18]: 40 | Plant response rating, Barnyardgrass [1, 19]: 0 | Plant response rating, Ducksalad [2, 16]: 0 | Plant response rating, Ducksalad [2, 17]: 50 | Plant response rating, Ducksalad [2, 18]: 50 | Plant response rating, Ducksalad [2, 19]: 0 | Plant response rating, Sedge, Umbrella [3, 16]: 0 | Plant response rating, Sedge, Umbrella [3, 17]: 40 | Plant response rating, Sedge, Umbrella [3, 18]: 70 | Plant response rating, Sedge, Umbrella [3, 19]: 0 | Plant response rating, Ryegrass, Italian [4, 20]: 75 | Plant response rating, Ryegrass, Italian [4, 21]: 100 | Plant response rating, Ryegrass, Italian [4, 22]: 100 | Plant response rating, Ryegrass, Italian [4, 23]: 100 | Plant response rating, Ryegrass, Italian [4, 24]: 25 | Plant response rating, Ryegrass, Italian [4, 25]: 100 | Plant response rating, Ryegrass, Italian [4, 26]: 100 | Plant response rating, Ryegrass, Italian [4, 27]: 100 | Plant response rating, Bluegrass [5, 20]: 0 | Plant response rating, Bluegrass [5, 21]: 0 | Plant response rating, Bluegrass [5, 22]: 0 | Plant response rating, Bluegrass [5, 23]: 35 | Plant response rating, Bluegrass [5, 24]: 0 | Plant response rating, Bluegrass [5, 25]: 20 | Plant response rating, Bluegrass [5, 26]: 40 | Plant response rating, Bluegrass [5, 27]: 65 | Plant response rating, Blackgrass [6, 20]: 65 | Plant response rating, Blackgrass [6, 21]: 100 | Plant response rating, Blackgrass [6, 22]: 100 | Plant response rating, Blackgrass [6, 23]: 100 | Plant response rating, Blackgrass [6, 24]: 70 | Plant response rating, Blackgrass [6, 25]: 75 | Plant response rating, Blackgrass [6, 26]: 98 | Plant response rating, Blackgrass [6, 27]: 98 | Plant response rating, Canarygrass ([7]; 8 g ai/ha, scale 0 to 100 (0 no effect, 100 complete control)): 0 | Plant response rating, Canarygrass ([7]; 16 g ai/ha, scale 0 to 100 (0 no effect, 100 complete control)): 0 | Plant response rating, Canarygrass ([7]; 31 g ai/ha, scale 0 to 100 (0 no effect, 100 complete control)): 95 | Plant response rating, Canarygrass ([7]; 62 g ai/ha, scale 0 to 100, 0 no effect, 100 complete control): 95 | Plant response rating, Bromegrass, Downy [8, 20]: 0 | Plant response rating, Bromegrass, Downy [8, 21]: 20 | Plant response rating, Bromegrass, Downy [8, 22]: 30 | Plant response rating, Bromegrass, Downy [8, 23]: 90 | Plant response rating, Bromegrass, Downy [8, 24]: 10 | Plant response rating, Bromegrass, Downy [8, 25]: 20 | Plant response rating, Bromegrass, Downy [8, 26]: 80 | Plant response rating, Bromegrass, Downy [8, 27]: 85 | Plant response rating, Foxtail, Green [9, 20]: 95 | Plant response rating, Foxtail, Green [9, 21]: 98 | Plant response rating, Foxtail, Green [9, 22]: 100 | Plant response rating, Foxtail, Green [9, 23]: 100 | Plant response rating, Foxtail, Green [9, 24]: 90 | Plant response rating, Foxtail, Green [9, 25]: 90 | Plant response rating, Foxtail, Green [9, 26]: 100 | Plant response rating, Foxtail, Green [9, 27]: 100 | Plant response rating, Pigweed [10, 20]: 0 | Plant response rating, Pigweed [10, 21]: 0 | Plant response rating, Pigweed [10, 22]: 0 | Plant response rating, Pigweed [10, 23]: 0 | Plant response rating, Pigweed [10, 24]: 0 | Plant response rating, Pigweed [10, 25]: 0 | Plant response rating, Pigweed [10, 26]: 0 | Plant response rating, Pigweed [10, 27]: 0 | Plant response rating, Barley, Spring [11, 20]: 0 | Plant response rating, Barley, Spring [11, 21]: 40 | Plant response rating, Barley, Spring [11, 22]: 40 | Plant response rating, Barley, Spring [11, 23]: 100 | Plant response rating, Barley, Spring [11, 24]: 0 | Plant response rating, Barley, Spring [11, 25]: 0 | Plant response rating, Barley, Spring [11, 26]: 40 | Plant response rating, Barley, Spring [11, 27]: 75 | Plant response rating, Wheat, Spring [12, 20]: 5 | Plant response rating, Wheat, Spring [12, 21]: 50 | Plant response rating, Wheat, Spring [12, 22]: 80 | Plant response rating, Wheat, Spring [12, 23]: 98 | Plant response rating, Wheat, Spring [12, 24]: 0 | Plant response rating, Wheat, Spring [12, 25]: 20 | Plant response rating, Wheat, Spring [12, 26]: 85 | Plant response rating, Wheat, Spring [12, 27]: 85 | Plant response rating, Mustard, Wild [13, 20]: 0 | Plant response rating, Mustard, Wild [13, 21]: 0 | Plant response rating, Mustard, Wild [13, 22]: 0 | Plant response rating, Mustard, Wild [13, 23]: 0 | Plant response rating, Mustard, Wild [13, 24]: 0 | Plant response rating, Mustard, Wild [13, 26]: 0 | Plant response rating, Mustard, Wild [13, 27]: 0 | Plant response rating, Oat, Wild (wild oat (Avena fatua); [20]): 25 | Plant response rating, Oat, Wild (wild oat (Avena fatua); [21]): 90 | Plant response rating, Oat, Wild (wild oat (Avena fatua); [22]): 100 | Plant response rating, Oat, Wild (wild oat (Avena fatua); [23]): 100 | Plant response rating, Oat, Wild (wild oat (Avena fatua); [24]): 0 | Plant response rating, Oat, Wild (wild oat (Avena fatua); [25]): 0 | Plant response rating, Oat, Wild (wild oat (Avena fatua); [26]): 75 | Plant response rating, Oat, Wild (wild oat (Avena fatua); [27]): 85 | Plant response rating, Windgrass [14, 20]: 0 | Plant response rating, Windgrass [14, 21]: 0 | Plant response rating, Windgrass [14, 22]: 50 | Plant response rating, Windgrass [14, 23]: 70 | Plant response rating, Windgrass [14, 24]: 0 | Plant response rating, Windgrass [14, 25]: 30 | Plant response rating, Windgrass [14, 26]: 75 | Plant response rating, Windgrass [14, 27]: 90 | Plant response rating, Wheat, Winter [15, 20]: 0 | Plant response rating, Wheat, Winter [15, 21]: 10 | Plant response rating, Wheat, Winter [15, 22]: 65 | Plant response rating, Wheat, Winter [15, 23]: 95 | Plant response rating, Wheat, Winter [15, 24]: 0 | Plant response rating, Wheat, Winter [15, 25]: 0 | Plant response rating, Wheat, Winter [15, 26]: 50 | Plant response rating, Wheat, Winter [15, 27]: 70
